Reference: US20250382305A1 (PTC THERAPEUTICS, INC., priority 2022, published 2025)
Blank lines part the entries; values can stand above or below the molecule they belong to.

How the values were obtained:
[1] = test system: Total ATXN3 (tATXN3) protein; assay: Endogenous Total ATXN3 (tATXN3) Protein Assay (MSD immunoassay of cell lysates); format: cell-based; conditions: average IC50, total ATXN3 protein in cell lysate after 48 h with compound (Table 1)
In short: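 By electrochemiluminescent MSD sandwich immunoassay (mouse monoclonal capture, rabbit monoclonal and SULFO-TAG anti-rabbit detection), endogenous ATXN3 was quantified in lysates of cells treated 48 h at 37° C at 10,000 cells/well. Treatment used a 7-point 3.16-fold duplicate dilution series, with average IC50 grouped into star categories.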

ATXN3 pre-mRNA = assay: RT-qPCR Assay to Quantify Exon 4 Skipping in ATXN3 pre-mRNA in Cells; format: cell-based; conditions: percent exon 4 skipping in ATXN3 pre-mRNA, RT-qPCR of cell lysates; average IC50
In short: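 IC50 derives from a dose-response fit of percent exon 4 skipping, quantified by RT-qPCR on crude lysates. Compounds tested as 7-point 3.16-fold dilutions in duplicate; cells (10,000/well) were exposed for 24 h at 37 °C before lysis.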

Molecule: N[C@@H]1COCC[C@H]1c1sc2c(NCc3cccs3)cc(Cl)nc2c1Cl.N[C@H]1COCC[C@@H]1c1sc2c(NCc3cccs3)cc(Cl)nc2c1Cl (mixture of isomers) [Compound 272, 2-((3R,4S)-3-aminotetrahydro-2H-pyran-4-yl)-3,5-dichloro-N-(thiophen-2-ylmethyl)thieno[3,2-b]pyridin-7-amine and 2-((3S,4R)-3-aminotetrahydro-2H-pyran-4-yl)-3,5-dichloro-N-(thiophen-2-ylmethyl)thieno[3,2-b]pyridin-7-amine]
IC50 [1]: 0.03 to 0.3 µM
IC50 (ATXN3 pre-mRNA): 0.03 to 0.3 µM

Molecule: N[C@@H]1CCCO[C@@H]1c1sc2c(NCc3cccs3)cc(Cl)nc2c1Cl [Compound 17, 2-((2S,3R)-3-aminotetrahydro-2H-pyran-2-yl)-3,5-dichloro-N-(thiophen-2-ylmethyl)thieno[3,2-b]pyridin-7-amine]
IC50 [1]: > 1 µM
IC50 (ATXN3 pre-mRNA): > 1 µM

Molecule: CC#CCNc1cc(Cl)nc2c(Br)c([C@@H]3CCCC[C@H]3N)sc12 [Compound 428, 2-((1R,2R)-2-aminocyclohexyl)-3-bromo-N-(but-2-yn-1-yl)-5-chlorothieno[3,2-b]pyridin-7-amine]
IC50 [1]: 0.3 to 1 µM
IC50 (ATXN3 pre-mRNA): 0.3 to 1 µM

Molecule: Cc1c([C@@H]2CCCCCC[C@@H]2N)sc2c(NCc3cccs3)cc(Cl)nc12 [Compound 95, 2-((1R,2S)-2-aminocyclooctyl)-5-chloro-3-methyl-N-(thiophen-2-ylmethyl)thieno[3,2-b]pyridin-7-amine]
IC50 [1]: > 1 µM
IC50 (ATXN3 pre-mRNA): > 1 µM

Molecule: N[C@@H]1CC=CC[C@H]1c1sc2c(NCc3ccncc3F)cc(Cl)nc2c1Cl [Compound 376, 2-((1R,6R)-6-aminocyclohex-3-en-1-yl)-3,5-dichloro-N-((3-fluoropyridin-4-yl)methyl)thieno[3,2-b]pyridin-7-amine]
IC50 [1]: 0.03 to 0.3 µM
IC50 (ATXN3 pre-mRNA): 0.03 to 0.3 µM

Molecule: N[C@H]1CCCO[C@@H]1c1c(Cl)c2nc(Cl)cc(NCc3ccco3)c2n1C(F)F [Compound 273, 2-((2S,3S)-3-aminotetrahydro-2H-pyran-2-yl)-3,5-dichloro-1-(difluoromethyl)-N-(furan-2-ylmethyl)-1H-pyrrolo[3,2-b]pyridin-7-amine]
IC50 [1]: 0.03 to 0.3 µM
IC50 (ATXN3 pre-mRNA): ≤ 0.03 µM

Molecule: N[C@H]1CCCCC[C@H]1c1sc2c(NCc3cccs3)cc(Cl)nc2c1Cl [Compound 77, 2-((1R,2S)-2-aminocycloheptyl)-3,5-dichloro-N-(thiophen-2-ylmethyl)thieno[3,2-b]pyridin-7-amine]
IC50 [1]: > 1 µM
IC50 (ATXN3 pre-mRNA): 0.3 to 1 µM

Molecule: N[C@@H]1CCCC[C@H]1c1c(I)c2nc(Cl)nc(NCc3ccco3)c2n1C(F)F [Compound 391, 6-((1R,2R)-2-aminocyclohexyl)-2-chloro-5-(difluoromethyl)-N-(furan-2-ylmethyl)-7-iodo-5H-pyrrolo[3,2-d]pyrimidin-4-amine]
IC50 [1]: 0.3 to 1 µM
IC50 (ATXN3 pre-mRNA): 0.3 to 1 µM

Molecule: N[C@@H]1CC=CC[C@H]1c1sc2c(NCc3ccccc3)nc(Cl)nc2c1Br [Compound 434, 6-((1R,6R)-6-aminocyclohex-3-en-1-yl)-N-benzyl-7-bromo-2-chlorothieno[3,2-d]pyrimidin-4-amine]
IC50 [1]: 0.03 to 0.3 µM
IC50 (ATXN3 pre-mRNA): 0.03 to 0.3 µM

Molecule: N[C@H]1CCCC[C@@H]1c1sc2c(NCc3cccs3)cc(Cl)nc2c1Cl (single isomer, unassigned) [Compound 34, 2-((1S,2S)-2-aminocyclohexyl)-3,5-dichloro-N-(thiophen-2-ylmethyl)thieno[3,2-b]pyridin-7-amine or 2-((1R,2R)-2-aminocyclohexyl)-3,5-dichloro-N-(thiophen-2-ylmethyl)thieno[3,2-b]pyridine-7-amine]
IC50 [1]: ≤ 0.03 µM
IC50 (ATXN3 pre-mRNA): ≤ 0.03 µM

Molecule: N[C@@H]1CCCCCC[C@H]1c1sc2c(NCc3cccs3)cc(Cl)nc2c1Cl [Compound 97, 2-((1R,2R)-2-aminocyclooctyl)-3,5-dichloro-N-(thiophen-2-ylmethyl)thieno[3,2-b]pyridin-7-amine]
IC50 [1]: > 1 µM
IC50 (ATXN3 pre-mRNA): > 1 µM

Molecule: N[C@H]1CC=CC[C@@H]1c1sc2c(NCc3cccs3)cc(Cl)nc2c1Cl [Compound 196, 2-((1S,6S)-6-aminocyclohex-3-en-1-yl)-3,5-dichloro-N-(thiophen-2-ylmethyl)thieno[3,2-b]pyridin-7-amine]
IC50 [1]: ≤ 0.03 µM
IC50 (ATXN3 pre-mRNA): ≤ 0.03 µM

Molecule: 2-((2R,3R)-3-aminotetrahydro-2H-pyran-2-yl)-5-chloro-3-iodo-N-(thiophen-2-ylmethyl)thieno[3,2-b]pyridin-7-amine and 2-((2S,3S)-3-aminotetrahydro-2H-pyran-2-yl)-5-chloro-3-iodo-N-(thiophen-2-ylmethyl)thieno[3,2-b]pyridin-7-amine [Compound 266]
IC50 [1]: 0.03 to 0.3 µM
IC50 (ATXN3 pre-mRNA): 0.03 to 0.3 µM

Molecule: COc1ncccc1C#Cc1c([C@H]2CC=CC[C@@H]2N)sc2c(NCc3cccs3)cc(Cl)nc12 [Compound 394, 2-((1S,6S)-6-aminocyclohex-3-en-1-yl)-5-chloro-3-((2-methoxypyridin-3-yl)ethynyl)-N-(thiophen-2-ylmethyl)thieno[3,2-b]pyridin-7-amine]
IC50 [1]: 0.3 to 1 µM
IC50 (ATXN3 pre-mRNA): 0.3 to 1 µM

Molecule: 2-((1R,2R)-2-aminocyclohexyl)-5-chloro-3-(prop-1-yn-1-yl)-N-(thiophen-2-ylmethyl)thieno[3,2-b]pyridin-7-amine and 2-((1S,2S)-2-aminocyclohexyl)-5-chloro-3-(prop-1-yn-1-yl)-N-(thiophen-2-ylmethyl)thieno[3,2-b]pyridin-7-amine [Compound 189]
IC50 [1]: ≤ 0.03 µM
IC50 (ATXN3 pre-mRNA): ≤ 0.03 µM

Molecule: 6-((1S,6S)-6-aminocyclohex-3-en-1-yl)-4-((furan-2-ylmethyl)amino)-7-methylthieno[3,2-d]pyrimidine-2-carbonitrile [Compound 282]
IC50 [1]: 0.03 to 0.3 µM
IC50 (ATXN3 pre-mRNA): 0.03 to 0.3 µM

Molecule: N[C@H]1CCCC[C@]1(O)c1sc2c(NCc3cccs3)cc(Cl)nc2c1Cl [Compound 31, (1R,2S)-2-amino-1-(3,5-dichloro-7-((thiophen-2-ylmethyl)amino)thieno[3,2-b]pyridin-2-yl)cyclohexan-1-ol]
IC50 [1]: > 1 µM
IC50 (ATXN3 pre-mRNA): > 1 µM

Molecule: N[C@@H]1CC=CC[C@H]1c1sc2c(NCc3ccncc3F)nc(Cl)nc2c1Cl [Compound 439, 6-((1R,6R)-6-aminocyclohex-3-en-1-yl)-2,7-dichloro-N-((3-fluoropyridin-4-yl)methyl)thieno[3,2-d]pyrimidin-4-amine]
IC50 [1]: 0.3 to 1 µM
IC50 (ATXN3 pre-mRNA): 0.3 to 1 µM

Molecule: N[C@H]1CC=CC[C@@H]1c1c(I)c2nc(Cl)nc(NCc3ccco3)c2n1C(F)F [Compound 276, 6-((1S,6S)-6-aminocyclohex-3-en-1-yl)-2-chloro-5-(difluoromethyl)-N-(furan-2-ylmethyl)-7-iodo-5H-pyrrolo[3,2-d]pyrimidin-4-amine]
IC50 [1]: 0.03 to 0.3 µM
IC50 (ATXN3 pre-mRNA): 0.03 to 0.3 µM

Continued, values first:

IC50 [1]: ≤ 0.03 µM
IC50 (ATXN3 pre-mRNA): ≤ 0.03 µM
Molecule: N[C@H]1CCOC[C@@H]1c1sc2c(NCc3ccccc3)cc(Cl)nc2c1Cl [Compound 218, 2-((3R,4S)-4-aminotetrahydro-2H-pyran-3-yl)-N-benzyl-3,5-dichlorothieno[3,2-b]pyridin-7-amine]

IC50 [1]: ≤ 0.03 µM
IC50 (ATXN3 pre-mRNA): 0.03 to 0.3 µM
Molecule: N[C@H]1COCC[C@@H]1c1sc2c(NCc3ccco3)cc(Cl)nc2c1Br [Compound 238, 2-((3R,4S)-3-aminotetrahydro-2H-pyran-4-yl)-3-bromo-5-chloro-N-(furan-2-ylmethyl)thieno[3,2-b]pyridin-7-amine]

IC50 [1]: ≤ 0.03 µM
IC50 (ATXN3 pre-mRNA): ≤ 0.03 µM
Molecule: N[C@H]1CCOC[C@@H]1c1sc2c(NCc3ccco3)cc(Cl)nc2c1Cl [Compound 174, 2-((3R,4S)-4-aminotetrahydro-2H-pyran-3-yl)-3,5-dichloro-N-(furan-2-ylmethyl)thieno[3,2-b]pyridin-7-amine]

IC50 [1]: 0.03 to 0.3 µM
IC50 (ATXN3 pre-mRNA): 0.03 to 0.3 µM
Molecule: Cc1c([C@H]2OCCC[C@@H]2N)sc2c(NCc3ccccc3F)cc(Cl)nc12 [Compound 33, 2-((2S,3S)-3-aminotetrahydro-2H-pyran-2-yl)-5-chloro-N-(2-fluorobenzyl)-3-methylthieno[3,2-b]pyridin-7-amine]

IC50 [1]: 0.03 to 0.3 µM
IC50 (ATXN3 pre-mRNA): ≤ 0.03 µM
Molecule: N[C@@H]1CCCC[C@H]1c1sc2c(NCc3cccs3)cc(Cl)nc2c1COC(F)F.N[C@H]1CCCC[C@@H]1c1sc2c(NCc3cccs3)cc(Cl)nc2c1COC(F)F (mixture of isomers) [Compound 257, 2-((1S,2S)-2-aminocyclohexyl)-5-chloro-3-((difluoromethoxy)methyl)-N-(thiophen-2-ylmethyl)thieno[3,2-b]pyridin-7-amine and 2-((1R,2R)-2-aminocyclohexyl)-5-chloro-3-((difluoromethoxy)methyl)-N-(thiophen-2-ylmethyl)thieno[3,2-b]pyridin-7-amine]

IC50 [1]: 0.03 to 0.3 µM
IC50 (ATXN3 pre-mRNA): 0.03 to 0.3 µM
Molecule: N[C@H]1CCCO[C@H]1c1sc2c(NCc3cccs3)cc(Cl)nc2c1Cl [Compound 19, 2-((2R,3S)-3-aminotetrahydro-2H-pyran-2-yl)-3,5-dichloro-N-(thiophen-2-ylmethyl)thieno[3,2-b]pyridin-7-amine]

IC50 [1]: 0.03 to 0.3 µM
IC50 (ATXN3 pre-mRNA): 0.03 to 0.3 µM
Molecule: CN(Cc1cccs1)c1cc(Cl)nc2c(C#CCCCO)c([C@@H]3CC=CC[C@H]3N)sc12 [Compound 451, 5-(2-((1R,6R)-6-aminocyclohex-3-en-1-yl)-5-chloro-7-(methyl(thiophen-2-ylmethyl)amino)thieno[3,2-b]pyridin-3-yl)pent-4-yn-1-ol]

IC50 [1]: 0.03 to 0.3 µM
IC50 (ATXN3 pre-mRNA): 0.03 to 0.3 µM
Molecule: N[C@@H]1CCCC[C@H]1c1sc2c(NCc3ccco3)cc(Cl)nc2c1Cl [Compound 296, 2-((1R,2R)-2-aminocyclohexyl)-3,5-dichloro-N-(furan-2-ylmethyl)thieno[3,2-b]pyridin-7-amine]

IC50 [1]: 0.03 to 0.3 µM
IC50 (ATXN3 pre-mRNA): 0.03 to 0.3 µM
Molecule: CC#CCNc1cc(Cl)nc2c(Cl)c([C@H]3CC=CC[C@@H]3N)sc12 [Compound 250, 2-((1S,6S)-6-aminocyclohex-3-en-1-yl)-N-(but-2-yn-1-yl)-3,5-dichlorothieno[3,2-b]pyridin-7-amine]
